# Assay results taken from the supplement of paper PMC11208160.
# Assay: recombinant barcode read abundance after kanamycin selection (control-corrected) (log10(CPM+1)); higher = more efficient recombination; sequences stand for … in AGTGCAGAGAAAATCGGCCAGTTTTCTCTGCCTGCAGTCCGCATGCCGT…AGATTTATGCAGCGGACTGCCTTTCTCCCAAAGTGATAAACCGGACAGTATCATGGACCGGTTTTCCCGGTAATCCGTATTTGCAAGGTTGGTTTCACT; site = the 11-nt target
# In short: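 For this pooled screen, each oligo contained a promoter, a target, a barcode and the J23119-driven first 104 bases of the bridge RNA. Gibson cloning placed it into a vector supplying the remaining 73 bp and a T7-inducible recombinase, and the pool was co-electroporated into E. coli with a donor plasmid. Recombination efficiency is derived from barcode counts per million at recombinant junctions after averaging and control correction, and is expressed on a log scale as log10(CPM+1), with selection on chloramphenicol/ampicillin/kanamycin plus 0.1 mM IPTG against a chloramphenicol/ampicillin LB agar control.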
# 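Note: IS621 recombinase and bridge RNA in Escherichia coli cells.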
row,Sequence,recombinant barcode read abundance (log10)
1,ATCAGTTCTTGGGTTCTAACCTGTTGCTG (site GATTTCGCTAG),0.155
2,ATCCAACCTTGGGTTCTAACCTGTTGCCT (site ATCCAACCTAG),1.89
3,ATCCAACCTTGGGTTCTAACCTGTTGCCT (site ATCCACCCTAG),0.123
4,ATCCAACCTTGGGTTCTAACCTGTTGCCT (site ATCCAGCCTAG),0.348
5,ATCCAACCTTGGGTTCTAACCTGTTGCCT (site ATCCATCCTAG),0.0128
6,ATCCACCCTTGGGTTCTAACCTGTTGCCT (site ATCCAACCTAG),0.15
7,ATCCACCCTTGGGTTCTAACCTGTTGCCT (site ATCCACCCTAG),2.07
8,ATCCACCCTTGGGTTCTAACCTGTTGCCT (site ATCCAGCCTAG),0.207
9,ATCCACCCTTGGGTTCTAACCTGTTGCCT (site ATCCATCCTAG),0.0749
10,ATCCACCCTTGGGTTCTAACCTGTTGCGG (site ATCCACCCTCC),3.07
11,ATCCACCCTTGGGTTCTAACCTGTTGCGG (site GACCACCCTCC),0.218
12,ATCCATCCTTGGGTTCTAACCTGTTGCCT (site ATCCAACCTAG),0.00851
13,ATCCATCCTTGGGTTCTAACCTGTTGCCT (site ATCCACCCTAG),0.0821
14,ATCCATCCTTGGGTTCTAACCTGTTGCCT (site ATCCAGCCTAG),0.0583
15,ATCCATCCTTGGGTTCTAACCTGTTGCCT (site ATCCATCCTAG),0.969
16,ATCCCATCTTGGGTTCTAACCTGTTGCCT (site ATACCATCTAG),0.383
17,ATCCCATCTTGGGTTCTAACCTGTTGCCT (site ATCCCATCTAG),0.619
18,ATCCCATCTTGGGTTCTAACCTGTTGCCT (site ATGCCATCTAG),0.0333
19,ATCCCATCTTGGGTTCTAACCTGTTGCCT (site ATTCCATCTAG),0.0512
20,ATCCCCTCTTGGGTTCTAACCTGTTGCCT (site ATCCCCTCTAG),2.53
21,ATCCCCTCTTGGGTTCTAACCTGTTGCCT (site ATCGCCTCTAG),0.031
22,ATCGAGTCTTGGGTTCTAACCTGTTGCCT (site AACGAGTCTAG),0.139

row,Sequence,recombinant barcode read abundance (log10)
1,ATCGAGTCTTGGGTTCTAACCTGTTGCCT (site ACCGAGTCTAG),1.11
2,ATCGAGTCTTGGGTTCTAACCTGTTGCCT (site AGCGAGTCTAG),0.734
3,ATCGAGTCTTGGGTTCTAACCTGTTGCCT (site ATCGAGTCTAG),1.56
4,ATCGATGCTTGGGTTCTAACCTGTTGCCT (site ATCGATGCTAG),0.545
5,ATCGATGCTTGGGTTCTAACCTGTTGCCT (site ATCTATTCTAG),0.0828
6,ATCGCCTCTTGGGTTCTAACCTGTTGCCT (site ATCCCCTCTAG),0.328
7,ATCGCCTCTTGGGTTCTAACCTGTTGCCT (site ATCGCCTCTAG),0.742
8,ATCGGAGCTTGGGTTCTAACCTGTTGCGG (site ATCGGAGCTCA),0.135
9,ATCGGAGCTTGGGTTCTAACCTGTTGCGG (site ATCGGAGCTCC),1.7
10,ATCGGAGCTTGGGTTCTAACCTGTTGCGG (site ATCGGAGCTCG),0.424
11,ATCGGAGCTTGGGTTCTAACCTGTTGCGG (site ATCGGAGCTCT),0.592
12,ATCGTATCTTGGGTTCTAACCTGTTGCGC (site ATCGTATCTGC),0.068
13,ATCGTATCTTGGGTTCTAACCTGTTGCGC (site GGGCAGGCTAG),0.832
14,ATCTCAACTTGGGTTCTAACCTGTTGCCT (site ACCTTAACTAG),0.0254
15,ATCTCAACTTGGGTTCTAACCTGTTGCCT (site ATCTCAACTAG),0.118
16,ATCTTACCTTGGGTTCTAACCTGTTGCCG (site ATCTTACCTCG),0.448
17,ATCTTACCTTGGGTTCTAACCTGTTGCCG (site GTCTTCCCTCG),0.11
18,ATCTTATCTTGGGTTCTAACCTGTTGCCT (site ATCTTAACTAG),0.0526
19,ATCTTATCTTGGGTTCTAACCTGTTGCCT (site ATCTTACCTAG),0.262
20,ATCTTATCTTGGGTTCTAACCTGTTGCCT (site ATCTTAGCTAG),0.0977
21,ATCTTATCTTGGGTTCTAACCTGTTGCCT (site ATCTTATCTAG),0.208
22,ATGAACCCTTGGGTTCTAACCTGTTGCGT (site ATGAACCCTAC),1.88

row,Sequence,recombinant barcode read abundance (log10)
1,ATGAACCCTTGGGTTCTAACCTGTTGCGT (site TTGAACCCTAC),0.659
2,ATGAAGCCTTGGGTTCTAACCTGTTGCTT (site ATCAAGCCTAA),0.0285
3,ATGAAGCCTTGGGTTCTAACCTGTTGCTT (site ATGAAGCCTAA),0.107
4,ATGACTACTTGGGTTCTAACCTGTTGCTC (site ATGACTACTGA),0.423
5,ATGACTACTTGGGTTCTAACCTGTTGCTC (site ATGACTACTTA),0.135
6,ATGAGGTCTTGGGTTCTAACCTGTTGCTC (site ATGAGCTCTTA),0.194
7,ATGAGGTCTTGGGTTCTAACCTGTTGCTC (site ATGAGGTCTGA),1.43
8,ATGATTACTTGGGTTCTAACCTGTTGCCT (site ATAGTTACTAG),0.0836
9,ATGATTACTTGGGTTCTAACCTGTTGCCT (site ATGATTACTAG),0.385
10,ATGCAACCTTGGGTTCTAACCTGTTGCCT (site ATGCAAACTAG),0.216
11,ATGCAACCTTGGGTTCTAACCTGTTGCCT (site ATGCAACCTAG),0.827
12,ATGCAACCTTGGGTTCTAACCTGTTGCCT (site ATGCAAGCTAG),0.362
13,ATGCAACCTTGGGTTCTAACCTGTTGCCT (site ATGCAATCTAG),0.293
14,ATGCACCCTTGGGTTCTAACCTGTTGCCT (site ATGCACCCTAG),2
15,ATGCACCCTTGGGTTCTAACCTGTTGCCT (site ATGCGCCCTAG),0.977
16,ATGCCGACTTGGGTTCTAACCTGTTGCCT (site ATGCCAACTAG),0.101
17,ATGCCGACTTGGGTTCTAACCTGTTGCCT (site ATGCCCACTAG),0.0898
18,ATGCCGACTTGGGTTCTAACCTGTTGCCT (site ATGCCGACTAG),1.02
19,ATGCCGACTTGGGTTCTAACCTGTTGCCT (site ATGCCTACTAG),0.11
20,ATGCGAGCTTGGGTTCTAACCTGTTGCCG (site ATGCGAGCTCA),0.177
21,ATGCGAGCTTGGGTTCTAACCTGTTGCCG (site ATGCGAGCTCC),0.358
22,ATGCGAGCTTGGGTTCTAACCTGTTGCCG (site ATGCGAGCTCG),0.815

row,Sequence,recombinant barcode read abundance (log10)
1,ATGCGAGCTTGGGTTCTAACCTGTTGCCG (site ATGCGAGCTCT),0.404
2,ATGCGCCCTTGGGTTCTAACCTGTTGCCT (site ATGCACCCTAG),0.43
3,ATGCGCCCTTGGGTTCTAACCTGTTGCCT (site ATGCGCCCTAG),0.717
4,ATGCTACCTTGGGTTCTAACCTGTTGCGG (site ATGCTACCTCC),1.2
5,ATGCTACCTTGGGTTCTAACCTGTTGCGG (site CACGGGGCTAG),0.0226
6,ATGGGAGCTTGGGTTCTAACCTGTTGCGA (site AGGGGAGCTCC),0.627
7,ATGGGAGCTTGGGTTCTAACCTGTTGCGA (site ATGGGAGCTTC),1.14
8,ATGGTGCCTTGGGTTCTAACCTGTTGCCT (site ATGGTGACTAG),0.098
9,ATGGTGCCTTGGGTTCTAACCTGTTGCCT (site ATGGTGCCTAG),2.65
10,ATGGTGCCTTGGGTTCTAACCTGTTGCCT (site ATGGTGGCTAG),0.417
11,ATGGTGCCTTGGGTTCTAACCTGTTGCCT (site ATGGTGTCTAG),2.03
12,ATGTAGGCTTGGGTTCTAACCTGTTGCCT (site ATGTAGGCTAG),0.137
13,ATGTAGGCTTGGGTTCTAACCTGTTGCCT (site ATGTTAGCTAG),0.127
14,ATGTATTCTTGGGTTCTAACCTGTTGCCT (site AACTATTCTAG),0.0758
15,ATGTATTCTTGGGTTCTAACCTGTTGCCT (site ATGTATTCTAG),0.828
16,ATGTCGTCTTGGGTTCTAACCTGTTGCCT (site AAGTCGTCTAG),0.0812
17,ATGTCGTCTTGGGTTCTAACCTGTTGCCT (site ACGTCGTCTAG),0.296
18,ATGTCGTCTTGGGTTCTAACCTGTTGCCT (site AGGTCGTCTAG),0.141
19,ATGTCGTCTTGGGTTCTAACCTGTTGCCT (site ATGTCGTCTAG),1.13
20,ATGTCTCCTTGGGTTCTAACCTGTTGCCT (site ATGTCTCCTAG),1
